Legend:
[1] = test system: mSOD1^(G93A) transgenic mice; settings: mouse, in vivo
[2] = test system: mSOD1^(G93A) transgenic mice
From the text: Transgenic mSOD1^(G93A) mice of both sexes were used in this study.

O=C(O)CC(O)(CC(=O)O)C(=O)O.[O-][n+]1cccc(C(Cl)=NOC[C@H](O)CN2CCCCC2)c1 [compound A, (+)-R-N-[2-hydroxy-3-(1-piperidinyl)-propoxy]-pyridine-1-oxide-3-carboximidoyl chloride citrate]
motoneurons surviving in the sciatic motor pool (mean +/- S.E.M.) [1]: 412+/−28
half relaxation time of EDL (mean +/- S.E.M.) ([2]; 10 mg/kg i.p. daily from 35 days of age, 120 days of age, n=10, p=0.030 vs untreated (43.3 ms), wild-type 25.8 ms): 32.2 ms
motor units survived in EDL muscles (mean +/- S.E.M.) ([2]; 10 mg/kg i.p. daily from 35 days of age, assessed at 120 days of age, n=10, p=0.003 vs untreated (8.3), wild-type 28): 14.3 +/−0.6
fatigue index (FI) of EDL (mean +/- S.E.M.) ([2]; 10 mg/kg i.p. daily, 120 days of age, stimulation 40 Hz, 3 minutes, n=10, p<0.05 vs untreated (0.255), wild-type 0.848): 0.416+/−0.07
average lifespan (mean +/- S.E.M.) ([2]; treated mSOD1^(G93A) mice, n=7, untreated 125 days, endpoint: inability to right itself and loss of approximately 20% body weight): 153 ± 2.6 days
decline in body weight ([2]; treated vs untreated mSOD1^(G93A) mice): delayed
increase in lifespan ([2]; treated vs untreated mSOD1^(G93A) mice, p<0.001): over 22%

— US20150126551A1, “USE OF A […] HALIDE DERIVATIVE IN THE TREATMENT OF NEURODEGENERATIVE DISEASES” (Orphazyme ApS, priority 2003, published 2015)
